# Assays:
# L. prolificans FMR 3569 = experiment: Lomentospora prolificans FMR 3569 disseminated infection model (survival, tissue burden); assay type: in vivo, Male OF-1 mice; conditions: VRC 25 mg/kg p.o. QD; Example 1 20 mg/k p.o. BID; from day 1 after challenge for 9 days
# Procedure: L. prolificans (also known as Scedosporium prolificans or S. prolificans) was grown on Potato Dextrose Agar (PDA) for 5 days at 35° C. On the day of infection, cultures were flooded with sterile saline and filtered through sterile gauze to remove clumps of conidia and hyphae. The resulting suspensions were adjusted by haemocytometer count and by serial plating to confirm viability.
# Male OF-1 mice with a mean weight of 30 g were used in the experiment. Mice were housed in standard boxes with food and water ad libitum.
# Mice were rendered neutropenic two days prior to infection by an intraperitoneal (i.p.) injection of 200 mg/kg of cyclophosphamide, and once every 5 days thereafter (Clemons et al, 2005).
# Mice were challenged with 5×10^4 CFU/animal of L. prolificans FMR 3569, in a volume of 0.2 ml of sterile saline into the lateral tail vein.
# Treatments consisted of (a) voriconazole (VRC) (Vfend; Pfizer S. A., Madrid, Spain) at 25 mg/kg p.o, by gavage QD; (b) Example 1 at 20 mg/k, p.o, by gavage BID; and (c) no treatment. From 3 days before infection, mice that received VRC were given grapefruit juice instead of water (Sugar & Liu, 2001). All treatments began 1 day after challenge, and the therapy lasted for 9 days. Controls received no treatment.
# For survival studies groups of 10 mice were randomly established for each therapy. Mortality was recorded daily until the end of the experiment. […]
# [1] = tested on: A. fumigatus strain A1163; experiment: Murine survival model of Aspergillus fumigatus infection (survival, kidney burden, serum galactomannan); assay type: in vivo, male CD-1 mice; conditions: positive control; 10 mg/kg b.i.d. by the oral route; A. fumigatus infected mice
# Procedure: Murine survival models are frequently used to assess the efficacy of antifungal drugs against Aspergillus. The models used in the development of Example 1 were carried out at Euprotec Ltd (Manchester) a contract research organisation (CRO) with extensive experience in the evaluation of antifungal drugs. The typical model involves the use of groups of 6-10 male CD-1 mice per treatment group. Mice are immunosuppressed with 200 mg/kg cyclophosphamide injected intraperitoneal 3 days prior to infection. A. fumigatus strain A1163 is cultured on Sabourauds agar for 4-6 days at 35° C. Spores are harvested in phosphate buffered saline (PBS)/Tween, the suspension diluted and the number of spores enumerated. Mice are then infected with an intravenous injection of A. fumigatus spores given through the lateral tail vein. The typical inoculum is 6-8×10^4 cfu/mouse and is sufficient to kill all untreated animals by Day 4-6. The animals die of IA and Aspergillus organisms can be detected in many body tissues. Treatment is typically commenced soon after infection but delays of up to 24 h following infection produce a more challenging model. Treatment is continued for 7-9 days. Treatment may be up to 3 times daily using an oral dosing. Following cessation of treatment, animals are observed for 1-2 days, and then sacrificed. Relevant controls treated with oral drug-free vehicle are always included; ideally there should be no survivors in this group. A positive control consisting of an antifungal drug such as Reference Example 10 was used. This compound consistently produces 100% survival at doses of 10 mg/kg b.i.d. dosed by the oral route. Most models are run as temporary neutropenic models where only a single dose of cyclophosphamide is administered.
# The fungal burden in the kidney can be determined on animals surviving to the end of the study and this can help provide efficacy discrimination between groups where all animals survive. Tissue burdens are carried out by removing the kidneys from animals when they are culled at the end of the study. These are homogenised in saline and plated onto Sabourauds agar and incubated at 35° C. for 72 h. Aspergillus colonies are counted and the amount of aspergillus per gram of kidney calculated. The results are expressed as colony forming units per gramme (cfu/g). […] However, data from studies where tissue burden has been carried out on untreated animals at day 4 or 5 has shown that tissue burdens are typically in excess of 20,000 cfu/g and may exceed 100,000 cfu/g in some studies.
# In some of the survival studies described below serum samples were collected from surviving mice at the end of the study or on mice that succumbed to infection during the study to examine the effect of Example 1 on galactomannan levels and to see if there was a relationship between galactomannan levels and survival.
# The galactomannan assays were carried out on serum samples that had been stored frozen at −80° C. Samples were thawed and assayed using a Platelia Aspergillus Ag enzyme-linked immunosorbent assay (ELISA) kit (Biorad). The assay was modified slightly to take into account the small sample volumes available from mice. If assay results were high a repeat test was carried out on a sample diluted in normal mouse serum. The amount of galactomannan in a sample is presented as a galactomannan index. The mean galactomannan index for each group was calculated and is presented graphically against each treatment regimen.
# The survival study carried assessed the dose response of Example 1. Example 1 was dosed orally to A. fumigatus infected mice at 2 dose levels 10 mg/kg b.i.d. and 3 mg/kg b.i.d. Therapy was initiated at 24 h post infection and therapy continued for 8 days. At the end of the study kidney burdens were measured on surviving animals. In addition serum samples were taken at the end of the study from all surviving animals and from each animal that died during the course of the study. […]
# A. terreus 49 = experiment: Minimum Inhibitory Concentration (MIC), RPMI medium; assay type: cell-based; conditions: Aspergillus terreus, >80% growth inhibition
# Procedure: (§1) Between 1 and 5 mgs of the compound were accurately weighed out into a sterile Eppendorf tube. The compound was dissolved in DMSO to give a solution containing 5 mg/mL. Tubes were stored at −20° C. until required.
# (§2) On the day of testing thawed solutions were vortex mixed to ensure homogeneity. 30 μL of solution was removed and added to 570 μL of sterile water in a separate sterile Eppendorf. The thoroughly mixed solution was used to prepare a series of doubling dilutions in water, in a deep well plate. Thirteen replicate plates were prepared using a Minitrak by aspirating 20 μL from each well into eleven clear polystyrene 96 well plates.
# (§3) Spores of Aspergillus and Scedosporium were harvested from cultures grown on Sabarauds agar for 5 days, and resuspended in PBS/Tween 80 to approx 1×10^7 cfu/mL. Each organism suspension was diluted in RPMI medium, containing 2% glucose and 0.135 M MOPS buffer (pH 7.0) to 0.5-2×10^4 cfu/mL. 80 μL of an organism suspension was added to each well of the plate containing drug dilutions.
# (§4) This produced MIC plates with a drug range 50-0.05 mg/L and organism inocula of 1-2×10^4 cfu/mL. All plates were incubated for 24-48 h at 35° C. Growth was assessed by monitoring the optical density at 485 nm for each well. The MIC of a compound is the lowest drug concentration that inhibits growth of an organism by >80% compared with a drug free control.
# A. terreus = experiment: as above; assay type: cell-based; conditions: Aspergillus terreus, >80% growth inhibition
# Procedure: as §1, §2, §3, §4
# [2] = tested on: Scedosporium apiospermum 8353; experiment: as above; assay type: cell-based
# Procedure: as §1, §2, §3, §4
# [3] = tested on: Scedosporium apiospermum 15848; experiment: as above; assay type: cell-based
# Procedure: as §1, §2, §3, §4
# [4] = tested on: Scedosporium apiospermum 451; experiment: as above; assay type: cell-based
# Procedure: as §1, §2, §3, §4
# [5] = tested on: Scedosporium prolificans 18389; experiment: as above; assay type: cell-based; conditions: Lomentospora prolificans
# Procedure: as §1, §2, §3, §4
# [6] = tested on: Scedosporium species 15849; experiment: as above; assay type: cell-based
# Procedure: as §1, §2, §3, §4
# [7] = tested on: Scedosporium prolificans 206; experiment: as above; assay type: cell-based; conditions: Lomentospora prolificans
# Procedure: as §1, §2, §3, §4
# [8] = tested on: Scedosporium prolificans 6322; experiment: as above; assay type: cell-based; conditions: Lomentospora prolificans
# Procedure: as §1, §2, §3, §4
# A. niger = experiment: as above; assay type: cell-based; conditions: Aspergillus niger, >80% growth inhibition
# Procedure: as §1, §2, §3, §4
# [9] = tested on: Scedosporium apiospermum 13486; experiment: as above; assay type: cell-based
# Procedure: as §1, §2, §3, §4
# A. flavus = experiment: as above; assay type: cell-based; conditions: Aspergillus flavus, >80% growth inhibition
# Procedure: as §1, §2, §3, §4
# [10] = tested on: Scedosporium apiospermum 4883; experiment: as above; assay type: cell-based
# Procedure: as §1, §2, §3, §4
# A. fumigatus = experiment: as above; assay type: cell-based; conditions: Aspergillus fumigatus, >80% growth inhibition
# Procedure: as §1, §2, §3, §4
# [11] = tested on: Scedosporium apiospermum 7935; experiment: as above; assay type: cell-based
# Procedure: as §1, §2, §3, §4
# A. fumigatus 210 = experiment: as above; assay type: cell-based; conditions: Aspergillus fumigatus, >80% growth inhibition
# Procedure: as §1, §2, §3, §4
Compound,survival rates compared with the control (FIG. 7) (L. prolificans FMR 3569),survival [1],MIC (A. terreus 49),MIC (A. terreus),MIC [2],MIC [3],MIC [4],MIC [5],MIC [6],MIC [7],MIC [8],MIC (A. niger),MIC Scedosporium apiospermum 13486 [9],"MIC ([9]; Scedosporium apiospermum, 13486)",MIC (A. flavus),MIC [10],MIC (A. fumigatus),MIC [11],MIC (A. fumigatus 210)
"C[C@@H](c1ncncc1F)[C@](O)(Cn1cncn1)c1ccc(F)cc1F [VRC, voriconazole]",no significant increase,,,,,,,,,,,,,,,,,,
"Cc1cc(C)nc(N2CCN(c3ccc(NC(=O)C(=O)c4c(-c5ccccc5)cc(C)n4C)cc3)CC2)c1 [Ref. Example 10, 2-(1,5-Dimethyl-3-phenyl-1H-pyrrol-2-yl)-N-{4-[4-(4,6-dimethyl-pyridin-2-yl)-piperazin-1-yl]-phenyl}-2-oxo-acetamide]",,100%,0.02 to 0.04 µg/mL,0.02 to 0.04 µg/mL,0.04 to 0.06 µg/mL,> 0.06 µg/mL,> 0.06 µg/mL,> 0.06 µg/mL,> 0.06 µg/mL,> 0.06 µg/mL,0.04 to 0.06 µg/mL,> 0.06 µg/mL,F (a grade of F represents an MIC of greater than 0.06 mg/L),> 0.06 µg/mL,0.04 to 0.06 µg/mL,0.02 to 0.04 µg/mL,0.02 to 0.04 µg/mL,> 0.06 µg/mL,0.02 to 0.04 µg/mL
